The source made the active and inactive calls. No cut-off for these calls is given here.
Columns and labels:
[1] = (§1) Metabolic stability in rat liver microsomes after 30 mins; assay type: ADME, Microsome; settings: liver microsomes, read-out: Stability
[2] = biological target: Cyclin-dependent kinase 2 (Homo sapiens, UniProt P24941); experiment: Inhibition of CDK2
[3] = biological target: Tyrosine-protein kinase SYK (Homo sapiens, UniProt P43405)
[4] = biological target: Proto-oncogene tyrosine-protein kinase Src (Homo sapiens, UniProt P12931); experiment: Inhibition of SRC
[5] = biological target: T1, Tyrosine-protein kinase ZAP-70 (Homo sapiens, UniProt P43403); experiment: (§2) Inhibition of ZAP70
T1 sequence (P43403 whole entry): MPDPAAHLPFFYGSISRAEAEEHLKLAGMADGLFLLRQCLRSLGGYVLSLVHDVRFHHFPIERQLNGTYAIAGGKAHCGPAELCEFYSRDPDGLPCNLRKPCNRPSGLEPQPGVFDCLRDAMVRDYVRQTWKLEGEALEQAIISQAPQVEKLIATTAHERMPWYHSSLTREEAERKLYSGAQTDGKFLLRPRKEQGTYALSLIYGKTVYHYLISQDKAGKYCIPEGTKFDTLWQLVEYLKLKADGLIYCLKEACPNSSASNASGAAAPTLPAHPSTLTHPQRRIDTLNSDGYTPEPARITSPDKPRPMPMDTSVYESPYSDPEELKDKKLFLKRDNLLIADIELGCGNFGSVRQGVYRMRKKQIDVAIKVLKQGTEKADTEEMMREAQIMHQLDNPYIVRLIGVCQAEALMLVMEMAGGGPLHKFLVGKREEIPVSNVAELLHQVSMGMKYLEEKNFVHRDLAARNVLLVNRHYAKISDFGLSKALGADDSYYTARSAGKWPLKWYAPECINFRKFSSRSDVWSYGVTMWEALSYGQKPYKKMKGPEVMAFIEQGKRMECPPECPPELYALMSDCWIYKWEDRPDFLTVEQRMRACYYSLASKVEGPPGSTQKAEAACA

[6] = tested on: Liver microsomes; experiment: as §1; assay type: ADME, Microsome; settings: microsomes, 0.5 h
[7] = biological target: T2, Tyrosine-protein kinase ZAP-70 (Homo sapiens) (UniProt P43403); experiment: as §2
T2 sequence (whole entry): T1 sequence (P43403 whole entry)

Proto-oncogene tyrosine-protein kinase Src, sequence (P12931 2-536 limits assumed): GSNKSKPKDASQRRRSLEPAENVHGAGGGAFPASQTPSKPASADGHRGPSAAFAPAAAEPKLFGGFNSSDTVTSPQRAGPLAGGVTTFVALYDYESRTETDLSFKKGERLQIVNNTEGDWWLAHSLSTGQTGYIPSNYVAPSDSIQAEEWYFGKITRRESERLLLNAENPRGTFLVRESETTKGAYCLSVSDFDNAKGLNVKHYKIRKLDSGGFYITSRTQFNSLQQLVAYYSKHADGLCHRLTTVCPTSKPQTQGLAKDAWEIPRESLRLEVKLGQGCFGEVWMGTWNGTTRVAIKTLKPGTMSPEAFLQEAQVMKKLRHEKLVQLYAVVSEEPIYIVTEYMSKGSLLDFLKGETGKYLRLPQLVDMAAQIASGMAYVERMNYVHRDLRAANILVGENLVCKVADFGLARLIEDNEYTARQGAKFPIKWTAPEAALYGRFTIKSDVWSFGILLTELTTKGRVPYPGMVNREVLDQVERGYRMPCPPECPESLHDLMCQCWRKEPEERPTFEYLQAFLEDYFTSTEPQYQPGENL

In the case of Cc1cc(Nc2nccc(-c3nc(CO)cs3)n2)cc(C(F)(F)F)c1, the remaining at 0.5 h [1] is reported as 64%, the Ki [2] is reported as 1500 nM and the Ki [3] is reported as 10 nM. It also gave a Ki [4] of 1800 nM and a Ki [5] of 750 nM.
Molecule COc1cc(Nc2nccc(-c3nccs3)n2)cc(C(F)(F)F)c1 has a remaining at 0.5 h [1] of 54%, a Ki [2] of over 5000 nM and a Ki [3] of 28 nM. It also gave a Ki [4] of 1830 nM and a Ki [5] of 2150 nM.
Cc1cc(C)cc(Nc2nccc(-c3nc(C)cs3)n2)c1 gave an Activity [6] of 5%, a Ki [2] of 100 nM and a Ki [3] of 56 nM. The Ki [4] was 2030 nM and the Ki [5] was 1030 nM.
Work on Cc1cc(Nc2nccc(-c3nc(C)c(CCO)s3)n2)cc(C(F)(F)F)c1 yielded a remaining at 0.5 h [1] of 80%, a Ki [2] of over 2500 nM and a Ki [3] of 22 nM. It also gave a Ki [4] of 3500 nM and a Ki [5] of 3500 nM.
Work on Cc1cc(C)cc(Nc2nccc(-c3nc(C)c(C(=O)N[C@@H](C)CO)s3)n2)c1 yielded a Ki [2] of over 3330 nM, a Ki [4] of over 3330 nM and a Ki [5] of 240 nM.
With Cc1cc(C)cc(Nc2nccc(-c3nc(C)c(CCO)s3)n2)c1 the remaining at 0.5 h [1] was 65%, the Ki [2] was 2270 nM and the Ki [3] was 32 nM. The Ki [4] was 3500 nM and the Ki [5] was 560 nM.
With COc1cc(Nc2nccc(-c3nc(CO)cs3)n2)cc(C(F)(F)F)c1 the Activity [6] was “Not Active”, the Ki [2] was over 2500 nM and the Ki [3] was 33 nM. It also gave a Ki [4] of 3500 nM and a Ki [5] of 1000 nM.
COc1cc(Nc2nccc(-c3nccs3)n2)cc(OC)c1 gave a remaining at 0.5 h [1] of 12%, a Ki [2] of over 5000 nM and a Ki [3] of 14 nM. It also gave a Ki [4] of 862 nM and a Ki [5] of 318 nM.
With COc1cc(Nc2nccc(-c3ncc(C)s3)n2)cc(C(F)(F)F)c1 the Activity [6] was “Not Active”, the Ki [2] was over 2500 nM and the Ki [3] was 23 nM. For the same molecule, the Ki [4] was 3700 nM and the Ki [5] was 1140 nM.
Cc1cc(C)cc(Nc2nccc(-c3nc(C)c(C(=O)N[C@H](C)CO)s3)n2)c1 showed a Ki [2] of over 3330 nM, a Ki [3] of 210 nM and a Ki [4] of over 3330 nM. The Ki [5] was 1500 nM.
In the case of Cc1cccc(Nc2nccc(-c3nccs3)n2)c1, the Activity [6] is reported as “Not Active”, the Ki [2] is reported as 2450 nM and the Ki [3] is reported as 82 nM. The Ki [4] was 2980 nM and the Ki [5] was 1550 nM.
With NCCCNc1nc(-c2ccc(N3CCOCC3)cc2)cc2ccccc12 the IC50 [3] was 8 nM.
Work on Oc1cc(Nc2nccc(-c3nccs3)n2)cc(C(F)(F)F)c1 yielded a remaining at 0.5 h [1] of 24%, a Ki [2] of 1650 nM and a Ki [3] of 44 nM. For the same molecule, the Ki [4] was 991 nM and the Ki [5] was 754 nM.
Molecule c1ccc(Oc2cccc(Nc3nccc(-c4nccs4)n3)c2)cc1 has a Ki [3] of 630 nM.
With Cc1cc(Nc2nccc(-c3nccs3)n2)cc(C(F)(F)F)c1 the Activity [6] was “Not Active”, the Ki [2] was over 5000 nM and the Ki [3] was 110 nM. It also gave a Ki [4] of 1360 nM and a Ki [5] of 891 nM.
In the case of Cc1cc(C)cc(Nc2nccc(-c3nccs3)n2)c1, the remaining at 0.5 h [1] is reported as 24%, the Ki [2] is reported as over 5000 nM and the Ki [3] is reported as 8 nM. For the same molecule, the Ki [4] was 1060 nM and the Ki [5] was 419 nM.
Work on Cc1cc(C)cc(Nc2nccc(-c3ncc(CO)s3)n2)c1 yielded a remaining at 0.5 h [1] of 37%, a Ki [2] of over 2500 nM and a Ki [3] of 4 nM. For the same molecule, the Ki [4] was 2000 nM and the Ki [5] was 270 nM.
Cc1cc(C)cc(Nc2nccc(-c3nc(CO)cs3)n2)c1 showed a remaining at 0.5 h [1] of 35%, a Ki [2] of 2400 nM and a Ki [3] of 10 nM. It also gave a Ki [4] of 2230 nM and a Ki [5] of 450 nM.
With OCc1csc(-c2ccnc(Nc3cc(O)cc(C(F)(F)F)c3)n2)n1 the remaining at 0.5 h [1] was 50%, the Ki [2] was 1500 nM and the Ki [3] was 50 nM. For the same molecule, the Ki [4] was 4000 nM and the Ki [5] was 680 nM.
Work on OCCCOc1cc(Nc2nccc(-c3nccs3)n2)cc(C(F)(F)F)c1 yielded a remaining at 0.5 h [1] of 68%, a Ki [2] of over 5000 nM and a Ki [3] of 26 nM. The Ki [4] was 422 nM and the Ki [5] was 677 nM.
In the case of Cc1ccc(C)c(Nc2nccc(-c3nccs3)n2)c1, the Activity [6] is reported as “Not Active”, the Ki [2] is reported as over 5000 nM and the Ki [3] is reported as 1820 nM. For the same molecule, the Ki [4] was 153 nM, the Activity was “inactive” and the Activity [7] was “inactive”.
Molecule Cc1cc(C)cc(Nc2nccc(-c3ncc(C)s3)n2)c1 has an Activity [6] of 15%, a Ki [2] of 1100 nM and a Ki [3] of 23 nM. It also gave a Ki [4] of 348 nM and a Ki [5] of 410 nM.

From ChEMBL document CHEMBL1152268, “Discovery and SAR of novel 4-thiazolyl-2-phenylaminopyrimidines as potent inhibitors of spleen tyrosine kinase (SYK)” (Bioorg Med Chem Lett, 2008)
